Columns and labels:
Format in all cases: biochemical
[1] = molecular target: PARP1 (Homo sapiens, UniProt P09874); experiment: BPS PARP1 Chemiluminescent Activity Assay Kit
[2] = molecular target: T1, PARP8 (Homo sapiens, UniProt Q8N3A8); experiment: PARP-isoform screening, Chemiluminescent Activity Assay Kit; conditions: Figure 5
T1 sequence (Q8N3A8 1-854): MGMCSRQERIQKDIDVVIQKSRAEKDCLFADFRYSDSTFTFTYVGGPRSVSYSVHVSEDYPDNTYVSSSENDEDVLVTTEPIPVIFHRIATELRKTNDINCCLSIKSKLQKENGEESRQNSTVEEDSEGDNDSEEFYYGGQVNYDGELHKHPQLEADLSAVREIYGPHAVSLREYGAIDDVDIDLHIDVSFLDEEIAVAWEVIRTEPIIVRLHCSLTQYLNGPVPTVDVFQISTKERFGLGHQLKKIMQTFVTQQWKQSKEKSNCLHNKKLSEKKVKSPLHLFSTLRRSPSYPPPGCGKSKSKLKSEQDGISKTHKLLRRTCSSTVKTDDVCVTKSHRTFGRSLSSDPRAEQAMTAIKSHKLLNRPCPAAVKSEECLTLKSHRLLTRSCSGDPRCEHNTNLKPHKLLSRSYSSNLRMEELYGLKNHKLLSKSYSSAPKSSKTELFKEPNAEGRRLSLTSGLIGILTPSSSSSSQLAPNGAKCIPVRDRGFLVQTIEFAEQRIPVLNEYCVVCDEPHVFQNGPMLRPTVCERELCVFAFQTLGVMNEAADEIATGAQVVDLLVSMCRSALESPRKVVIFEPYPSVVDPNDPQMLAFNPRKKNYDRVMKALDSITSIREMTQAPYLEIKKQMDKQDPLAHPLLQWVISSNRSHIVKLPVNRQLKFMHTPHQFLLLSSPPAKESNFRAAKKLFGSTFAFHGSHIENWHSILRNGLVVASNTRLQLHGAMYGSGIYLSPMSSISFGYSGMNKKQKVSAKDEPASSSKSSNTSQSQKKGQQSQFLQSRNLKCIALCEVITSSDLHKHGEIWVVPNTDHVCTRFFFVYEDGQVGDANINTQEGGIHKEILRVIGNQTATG

[3] = molecular target: T2, TNKS2 (PARP5B) (Homo sapiens, UniProt Q9H2K2); experiment: as above; conditions: Figure 5
T2 sequence (Q9H2K2 1-1166): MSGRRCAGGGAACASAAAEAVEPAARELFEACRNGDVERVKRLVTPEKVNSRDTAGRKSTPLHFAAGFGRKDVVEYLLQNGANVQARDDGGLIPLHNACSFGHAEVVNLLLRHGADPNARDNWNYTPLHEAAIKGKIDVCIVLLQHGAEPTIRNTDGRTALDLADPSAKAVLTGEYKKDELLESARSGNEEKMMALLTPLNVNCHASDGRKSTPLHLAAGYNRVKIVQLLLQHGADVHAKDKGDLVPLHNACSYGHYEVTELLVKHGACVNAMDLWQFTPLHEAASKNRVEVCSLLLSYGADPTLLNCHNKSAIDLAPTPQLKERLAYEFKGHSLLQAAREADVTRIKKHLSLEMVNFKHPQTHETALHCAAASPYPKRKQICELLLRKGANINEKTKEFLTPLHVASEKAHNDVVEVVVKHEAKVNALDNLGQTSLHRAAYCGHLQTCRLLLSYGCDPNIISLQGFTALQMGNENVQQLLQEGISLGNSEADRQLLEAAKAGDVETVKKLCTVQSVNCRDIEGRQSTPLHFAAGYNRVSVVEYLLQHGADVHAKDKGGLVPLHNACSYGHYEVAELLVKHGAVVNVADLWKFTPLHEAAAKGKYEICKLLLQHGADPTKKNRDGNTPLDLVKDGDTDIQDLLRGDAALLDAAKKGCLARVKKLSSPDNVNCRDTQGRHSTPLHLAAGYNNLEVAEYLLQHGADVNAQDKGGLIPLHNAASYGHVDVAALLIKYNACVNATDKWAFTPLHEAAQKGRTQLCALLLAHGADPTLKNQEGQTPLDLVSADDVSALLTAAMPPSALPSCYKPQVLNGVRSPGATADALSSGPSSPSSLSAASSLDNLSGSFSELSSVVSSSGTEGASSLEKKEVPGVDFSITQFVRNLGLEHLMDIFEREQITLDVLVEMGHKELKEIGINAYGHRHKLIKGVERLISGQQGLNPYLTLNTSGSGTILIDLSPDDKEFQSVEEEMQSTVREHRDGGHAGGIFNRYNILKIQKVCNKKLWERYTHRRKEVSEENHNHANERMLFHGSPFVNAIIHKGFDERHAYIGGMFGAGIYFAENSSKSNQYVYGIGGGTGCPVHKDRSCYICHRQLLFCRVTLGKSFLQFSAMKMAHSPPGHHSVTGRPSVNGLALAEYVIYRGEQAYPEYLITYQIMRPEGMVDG

Chain of PARP1 (P09874 whole entry, canonical isoform): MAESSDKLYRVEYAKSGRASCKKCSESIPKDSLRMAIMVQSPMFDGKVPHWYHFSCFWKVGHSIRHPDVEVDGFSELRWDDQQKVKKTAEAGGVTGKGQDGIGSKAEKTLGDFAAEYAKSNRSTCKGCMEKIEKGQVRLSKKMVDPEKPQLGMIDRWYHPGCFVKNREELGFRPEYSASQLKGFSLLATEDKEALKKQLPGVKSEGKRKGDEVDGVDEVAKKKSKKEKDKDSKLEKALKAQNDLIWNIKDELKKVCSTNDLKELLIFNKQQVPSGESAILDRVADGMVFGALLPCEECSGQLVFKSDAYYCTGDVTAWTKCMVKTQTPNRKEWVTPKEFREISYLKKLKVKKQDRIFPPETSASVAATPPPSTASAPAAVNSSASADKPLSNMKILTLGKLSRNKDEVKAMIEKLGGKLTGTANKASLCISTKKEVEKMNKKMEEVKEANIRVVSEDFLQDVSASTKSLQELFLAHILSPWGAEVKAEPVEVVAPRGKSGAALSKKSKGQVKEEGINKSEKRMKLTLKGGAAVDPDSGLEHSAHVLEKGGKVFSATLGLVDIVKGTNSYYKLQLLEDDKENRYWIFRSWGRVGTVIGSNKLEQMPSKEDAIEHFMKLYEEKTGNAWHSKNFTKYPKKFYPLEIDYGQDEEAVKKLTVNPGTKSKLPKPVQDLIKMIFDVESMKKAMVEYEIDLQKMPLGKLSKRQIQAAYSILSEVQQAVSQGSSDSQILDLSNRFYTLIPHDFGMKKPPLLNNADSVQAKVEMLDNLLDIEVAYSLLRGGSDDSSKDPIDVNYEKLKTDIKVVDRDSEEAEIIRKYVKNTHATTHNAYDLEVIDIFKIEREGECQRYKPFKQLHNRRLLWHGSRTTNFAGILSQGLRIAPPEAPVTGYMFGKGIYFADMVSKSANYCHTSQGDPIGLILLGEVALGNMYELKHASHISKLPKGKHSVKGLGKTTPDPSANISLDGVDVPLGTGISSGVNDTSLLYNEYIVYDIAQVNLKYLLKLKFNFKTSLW

IC50 [1]: 82 ± 45 nM
PARP8 inhibition [2]: did not interfere
TNKS2 inhibition [3]: substantially inhibited
Compound: NC(=O)c1cccc2c1O/C(=C\c1ccc(O)cc1)C(=O)N2 [Compound 49, (Z)-2-(4-Hydroxybenzylidene)-3-oxo-3,4-dihydro-2H-benzo[b][1,4]oxazine-8-carboxamide]

Source: article PMC8142146 (Bioorganic chemistry, 2020)
